{
  "source": "patent US20070232572A1",
  "about": "“Chemical derivatives as antitelomerase agents which bind specifically to the G-quadruplex DNA structures and their application as a specific anticancer agent” (priority 2003, published 2007)",
  "key": {"[1]": {"test_system": "any oligonucleotide (non-G-quadruplex control sequence) with its complementary strand", "test": "Test of selectivity No. 1 (alpha screen): inhibition of pairing of any oligonucleotide with its complementary strand, luminescence", "assay_type": "binding", "settings": "control oligonucleotide pairing versus G4 oligonucleotide pairing", "from_the_text": "The test used is the same as that described above. Only the oligonucleotides are different, the telomeric strand being replaced by an oligonucleotide having the following sequence: G-GTT-TAA-AAT-AAT-TGA-GGC-TTA-CCG-TTA-CCG-TTA-CGG biotinylated at the 5′ end. The complementary strand has the sequence: 5′-GGT-TTA-AAA-AAT-TTG-CGG-TAA-CGG-TAA-CGG-TAA-GCC-T labeled with digoxigenin at the 5′ end. If the test product has affinity for the biotinylated DNA sequence, the pairing of the complementary strand will be prevented and the signal obtained will be minimal. In the absence of product or if the latter has no affinity for this DNA, the pairing will occur and the signal will be maximum."}, "[2]": {"test_system": "human telomerase (extract of A549 cells), oligonucleotide TSG4", "test": "Antitelomerase activity by the TRAP-G4 assay", "assay_type": "biochemical", "settings": "formation of the TSG4-CXext band; read-out: Inhibition of telomerase IC50 (IC50 TRAP-G4)", "protocol": "The extract is stored at -80° C."}, "[3]": {"test_system": "oligonucleotide capable of forming a G-quadruplex structure (G-rich strand, repetitive units of human telomeric DNA)", "test": "Test of affinity No. 1 (alpha screen): inhibition of pairing of a G-quadruplex-forming oligonucleotide with its complementary strand, luminescence", "assay_type": "binding", "settings": "50 mM TRIS-HCl pH 7.4, 100 mM KCl, 0.1% BSA; telomeric strand vs complementary strand; read-out: Affinity/selectivity G4 Test 1 (alpha screen) Affinity IC50", "from_the_text": "The principle of this test uses the activation of “acceptor” beads by an oxygen singlet emitted by “donor” beads excited by laser when the “acceptor” and “donor” beads are in proximity. This test was developed by Packard Bioscience under the name Amplified Luminescent Proximity Homogeneous Assay or ALPHA screen.\nThe “donor” beads are conjugated with streptavidin and the acceptor beads with an anti-digoxigenin antibody (catalog reference 6760604). A DNA strand, in this case the telomeric strand, is coupled at its 5′ end to biotin so as to be able to bind to the “donor” beads, while the complementary strand is coupled to digoxigenin so as to be able to bind to the “acceptor” beads. During the pairing of the telomeric strand with its complementary strand, the beads are placed in proximity and a luminescence signal is then emitted at a wavelength of 520-620 nm.\nThe oligonucleotides used in the experiments were synthesized by Perkin Elmer Life Sciences (Finland). […] The complementary strand has the sequence GGT-TTA-AAA-AAT-TTG-CCC-TAA-CCC-TAA-CCC-TAA-CCC-T. The biotin or the digoxigenin are added to the 5′ end of the oligonucleotides.\nThe experiments are carried out in 50 mM TRIS-HCl buffer pH 7.4 containing 100 mM KCl and 0.1% BSA.\nThe measurements are carried out with an Alphaquest microplate analyzer (Fusion α) from Packard Biosciences.\nThe experiments are carried out in 96-well plates (½ wells). An oligonucleotide stock solution at the concentration of 25 nM in the buffer described above is prepared. 10 μl of this solution are distributed into the wells. 10 μl of the test product at different concentrations, prepared in the same buffer containing 0.6% DMSO, are then added. 10 μl of buffer+0.6% DMSO are distributed into the control wells. The samples are left to incubate for 15 minutes at room temperature. After this incubation time, 10 μl of the complementary strand at the concentration of 25 nM and 20 μl of a solution containing 2 types of bead diluted beforehand to 50 mg/ml are added to the wells. The plates are incubated at room temperature for 2 hours before reading. […]"}, "[4]": {"test_system": "G-quadruplex oligonucleotide GGGTTAGGGTTAGGGTTAGGG (3.5 repeats of the human telomeric unit), FAM+DABCYL", "test": "Test of affinity No. 3: stabilization of the G-quadruplexes, fluorescence Tm", "assay_type": "binding", "settings": "test product 1 μM, oligonucleotide 0.2 μM, 0.1 M LiCl, 10 mM cacodylate pH 7.6; reference Tm 44° C.", "from_the_text": "Test of affinity No. 3: Measurement of the stabilization of the G-guadruplexes Tm, expressed in ° C., by a method using the formation of a complex with fluorescein of which the experimental protocol is described below.\nAll the oligonucleotides, modified or otherwise, were synthesized by Eurogentec S A, Seraing, Belgium. The oligonucleotide FAM+DABCYL has the catalog reference OL-0371-0802. It has the sequence: […] corresponding to 3.5 repeats of the human telomeric unit (strand rich in G). The fluorescein is attached to the 5′ end, the DABCYL to the 3′ end, by the chemical arms described by Eurogentec. An oligonucleotide FAM+TAMRA may also be used. The concentration of the samples is checked by spectrophotometry, by recording the absorbance spectrum between 220 and 700 nm and using the molar extinction coefficient provided by the supplier.\nAll the experiments were carried out in a 10 mM sodium cacodylate buffer pH 7.6 containing 0.1 M lithium chloride (or sodium chloride). The absence of fluorescent contamination in the buffer was checked beforehand. The fluorescent oligonucleotide is added at the final concentration of 0.2 μM.\nAll the measurements of fluorescence were carried out on a Spex Fluorolog DM1B or Fluoromax 3 apparatus, using an excitation line width of 1.8 nm and an emission line width of 4.5 or 5 nm. The samples are placed in a microquartz cuvette of 0.2×1 cm. […] The oligonucleotide alone was analyzed at 20, 30, 40, 50, 60, 70 and 80° C. The emission spectra are recorded using an excitation wavelength of 470 nm. The excitation spectra are recorded using either 515 or 588 nm as emission wavelength. […] A high extinction (80-90%) of the fluorescence of fluorescein at room temperature is observed, in agreement with an intramolecular folding of the oligonucleotide at 20° C. in the form of a G-quadruplex, which induces juxtaposition of its 5′ and 3′ ends which are respectively linked to fluorescein and to DABCYL. This juxtaposition causes an already-described phenomenon of extinction of fluorescence which is used for “Molecular Beacons”. […]"}, "[5]": {"test_system": "any double-stranded oligonucleotide", "test": "Test of selectivity No. 2: dissociation constant of the complex with a double-stranded oligonucleotide, by fluorescence", "assay_type": "binding", "settings": "DNA double strand versus oligonucleotide G4", "protocol": "Test of selectivity No. 2: Measurement of the dissociation constant, expressed in μM, of the complex between a product of the invention and any double-stranded oligonucleotide, by a fluorescence method according to the experimental protocol is described below.\nThe titrations are carried out according to a protocol identical to that used for the titrations of the preceding test."}, "[6]": {"molecular_target": "oligonucleotide capable of forming a monomeric G-quadruplex structure", "test": "Test of affinity No. 2: dissociation constant of the complex with a monomeric G-quadruplex oligonucleotide, by fluorescence", "assay_type": "binding", "settings": "read-out: Affinity/selectivity G4 Test 2 (Kd by fluorescence) Kd", "protocol": "Test of affinity No. 2: Measurement of the dissociation constant, expressed in μM, of the complex between a product of the invention and an oligonucleotide, capable of forming a monomeric G-guadruplex structure, by a fluorescence method according to the experimental protocol is described below.\nThe titrations are carried out at 20° C. in a quartz cuvette having a useful volume of 3 ml and a cross section of 10×10 mm, placed in the thermostated compartment of the Spex Fluorolog 3 fluorimeter (Jobin-Yvon). […] To a 0.1 μM solution of compound are added increasing concentrations of nucleic acids. After an equilibration time of 3 minutes, a fluorescence emission spectrum is recorded for each point, using slits of 5 nm and an excitation wavelength of 340 nm. Each aliquot represents an additional volume of 3 microliters. The effects of dilution are corrected at the end of the experiment after integrating the emission signal. The curves representing the emission intensity as a function of the nucleic acid concentration are then analyzed and fitted with the Kaleidagraph 3.52 software for Macintosh."}, "[7]": {"settings": "20° C., sodium cacodylate pH 7.2, 100 mM potassium chloride (K+)"}},
  "note": "Read-outs that look alike come from different tables or passages of the source.",
  "data": [
    {"smiles": "C[n+]1cccc2cc(NC(=O)c3cccc(C(=O)Nc4ccc5c(ccc[n+]5C)c4)n3)ccc21.[I-].[I-]", "note": "[Example 1, bis[(1-methylquinolinio-6-yl)amido]-2,6-pyridinedicarboxylic acid diiodide]", "values": [
      {"measurement": "Affinity/selectivity G4 Test 1 (alpha screen) Selectivity factor", "setting": "[1]", "value": ">20"},
      {"measurement": "IC50", "setting": "[2]", "value": 450, "unit": "nM"},
      {"measurement": "IC50", "setting": "[3]", "value": 160, "unit": "nM"},
      {"measurement": "Affinity G4 Test 3 Delta Tm", "setting": "[4]", "value": 26, "unit": "°C"},
      {"measurement": "Affinity/selectivity G4 Test 2 (Kd by fluorescence) Selectivity factor", "setting": "[5]", "value": ">>100"},
      {"measurement": "Kd", "setting": "[6]; [7]", "value": 7, "unit": "nM"}
    ]},
    {"smiles": "C[n+]1cccc2cc(NC(=O)c3cccc(C(=O)Nc4cc5ccccc5[n+](C)c4)n3)ccc21.[I-].[I-]", "note": "[Example 9, 2-[(1-methylquinolinio-6-yl)amido]-6-[(1-methylquinolinio-3-yl)amido]-2,6-pyridinedicarboxylic acid iodide]", "values": [
      {"measurement": "Affinity/selectivity G4 Test 1 (alpha screen) Selectivity factor", "setting": "[1]", "value": ">50"},
      {"measurement": "IC50", "setting": "[2]", "value": 300, "unit": "nM"},
      {"measurement": "IC50", "setting": "[3]", "value": 60, "unit": "nM"},
      {"measurement": "Affinity G4 Test 3 Delta Tm", "setting": "[4]", "value": 21, "unit": "°C"},
      {"measurement": "Affinity/selectivity G4 Test 2 (Kd by fluorescence) Selectivity factor", "setting": "[5]", "value": ">1000"},
      {"measurement": "Kd", "setting": "[6]; [7]", "value": 0.7, "unit": "nM"},
      {"measurement": "Kd", "setting": "[6]; Na+", "value": 3.2, "unit": "nM"}
    ]},
    {"smiles": "C[n+]1cccc2cc(NC(=O)c3cccc(C(=O)NCC[N+]4(C)CCCCC4)n3)ccc21.[I-].[I-]", "note": "[Example 12, 2-[(1-methylquinolinio-6-yl)amido]-6-[2(-1-methylpiperidinio-1-yl)ethylamido]-2,6-pyridinedicarboxylic acid diiodide]", "values": [
      {"measurement": "Affinity/selectivity G4 Test 1 (alpha screen) Selectivity factor", "setting": "[1]", "value": ">3"},
      {"measurement": "IC50", "setting": "[2]", "value": 1500, "unit": "nM"},
      {"measurement": "IC50", "setting": "[3]", "value": 1060, "unit": "nM"},
      {"measurement": "Affinity G4 Test 3 Delta Tm", "setting": "[4]", "value": 12.1, "unit": "°C"}
    ]}
  ]
}
